Results taken from patent US20260306527A1, “PRMT INHIBITOR COMPOUNDS AND THE USES THEREOF” (Purdue Research Foundation, priority 2023, published 2026).
“Also recorded” adds a separate entry of the source.

Experiments:
Format in all cases: biochemical
[1] = molecular target: PRMT3 (Homo sapiens, UniProt O60678); assay: SAHH-coupled fluorescence assay, inhibition of PRMT3; design: PRMT3 (residues 211-531) was cloned into the pET28a-MHL expression vector; tag of the pET28a-MHL vector (not described); made in house; host or cells: Escherichia coli BL21(DE3)
Description: (§1) A fluorescence-based SAHH-coupled assay was applied to study the inhibition activity of all synthesized compounds on PRMT 1 and 3.
(§2) The PRMT3 methylation assay was performed under the following conditions in a final well volume of 100 μL: 20 mM Tris (pH=7.5), 0.01% Triton X-100, 5 μM SAHH, 0.25 μM PRMT3, 30 μM AdoMet, and 15 μM ThioGlo4. […] Fluorescence was monitored on a BMG CLARIOstar microplate reader with excitation 380 nm and emission 505 nm. Data were processed by using GraphPad Prism software 8.0. All experiments were performed in duplicate.
(§3) Next, the inhibition activity of the library was investigated for five PRMT members from type I PRMTs.
as §2, with “8.0.” for “8.0. All experiments were performed in duplicate.”

[2] = molecular target: T1, PRMT4 (Homo sapiens, UniProt Q86X55); assay: radioactive assay (Reaction Biology Corp.), inhibition of PRMT4
T1 sequence (Q86X55 1-608): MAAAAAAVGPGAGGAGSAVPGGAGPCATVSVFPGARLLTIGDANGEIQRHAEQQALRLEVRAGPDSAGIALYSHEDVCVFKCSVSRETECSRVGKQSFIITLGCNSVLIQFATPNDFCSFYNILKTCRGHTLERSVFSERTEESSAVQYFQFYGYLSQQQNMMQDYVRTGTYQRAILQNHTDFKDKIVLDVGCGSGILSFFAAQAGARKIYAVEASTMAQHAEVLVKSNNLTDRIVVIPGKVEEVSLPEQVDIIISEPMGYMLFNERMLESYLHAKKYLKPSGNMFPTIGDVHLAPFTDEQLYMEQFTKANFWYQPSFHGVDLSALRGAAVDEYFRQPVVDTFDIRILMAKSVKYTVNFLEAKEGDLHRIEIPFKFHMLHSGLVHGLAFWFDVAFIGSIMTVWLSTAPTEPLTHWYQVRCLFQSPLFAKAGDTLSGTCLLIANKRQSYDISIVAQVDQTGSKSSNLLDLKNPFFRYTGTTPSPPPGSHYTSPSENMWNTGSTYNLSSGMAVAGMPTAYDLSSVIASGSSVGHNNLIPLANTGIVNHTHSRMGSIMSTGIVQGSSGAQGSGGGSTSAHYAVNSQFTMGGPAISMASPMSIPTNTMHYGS
Description: as §3
(§4) The PRMT 4, 6 and 8 methylation assays were performed by Reaction Biology corp.

[3] = molecular target: PRMT6 (Homo sapiens, UniProt Q96LA8); assay: radioactive assay (Reaction Biology Corp.), inhibition of PRMT6
Description: as §3, §4

[4] = molecular target: PRMT8 (Homo sapiens, UniProt Q9NR22); assay: radioactive assay (Reaction Biology Corp.), inhibition of PRMT8
Description: as §3, §4

[5] = molecular target: T2, PRMT1 (Homo sapiens, UniProt Q99873); assay: SAHH-coupled fluorescence assay, inhibition of PRMT1
T2 construct: made in house
Description: as §1
(§5) The PRMT1 methylation assay was performed under the following conditions in a final well volume of 100 μL: 2.5 mM HEPES (pH=7.0), 25 mM NaCl, 25 μM EDTA, 50 μM TCEP, 0.01% Triton X-100, 5 μM SAHH, 0.1 μM PRMT1, 10 μM AdoMet, and 10 μM ThioGlo4. […] The fluorescence signal was monitored on a BMG CLARIOstar microplate reader with excitation at 400 nm and emission at 465 nm for 15 min. Data were processed using GraphPad Prism software 8.0.
as §3
as §5, with “A fluorescence-based SAHH-coupled assay was applied to determine the inhibition activity of all synthesized compounds on PRMT 1 and 3. The PRMT1” for “The PRMT1”, “software 8.0. All experiments were performed in duplicate.” for “software 8.0.”

Chain of PRMT3 (O60678 211-531): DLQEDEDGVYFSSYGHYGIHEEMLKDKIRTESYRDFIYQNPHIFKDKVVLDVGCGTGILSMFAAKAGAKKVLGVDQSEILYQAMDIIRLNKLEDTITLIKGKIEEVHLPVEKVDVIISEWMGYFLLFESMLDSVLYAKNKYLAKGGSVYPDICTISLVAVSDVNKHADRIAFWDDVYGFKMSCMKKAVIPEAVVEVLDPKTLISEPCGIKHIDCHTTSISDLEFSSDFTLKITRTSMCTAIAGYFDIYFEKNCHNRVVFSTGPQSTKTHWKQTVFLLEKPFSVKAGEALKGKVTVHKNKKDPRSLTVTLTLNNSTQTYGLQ
Chain of PRMT6 (Q96LA8 whole entry, species assumed): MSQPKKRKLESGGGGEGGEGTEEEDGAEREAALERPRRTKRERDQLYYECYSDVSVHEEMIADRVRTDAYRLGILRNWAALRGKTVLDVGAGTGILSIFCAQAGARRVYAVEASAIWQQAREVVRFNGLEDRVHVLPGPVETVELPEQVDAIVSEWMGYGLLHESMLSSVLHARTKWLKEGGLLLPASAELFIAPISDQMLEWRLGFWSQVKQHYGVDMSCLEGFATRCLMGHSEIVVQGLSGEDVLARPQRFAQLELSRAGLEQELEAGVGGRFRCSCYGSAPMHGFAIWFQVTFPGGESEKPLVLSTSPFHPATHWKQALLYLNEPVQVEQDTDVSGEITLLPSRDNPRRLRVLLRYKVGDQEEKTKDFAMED
T2 sequence (Q99873 whole entry, species assumed): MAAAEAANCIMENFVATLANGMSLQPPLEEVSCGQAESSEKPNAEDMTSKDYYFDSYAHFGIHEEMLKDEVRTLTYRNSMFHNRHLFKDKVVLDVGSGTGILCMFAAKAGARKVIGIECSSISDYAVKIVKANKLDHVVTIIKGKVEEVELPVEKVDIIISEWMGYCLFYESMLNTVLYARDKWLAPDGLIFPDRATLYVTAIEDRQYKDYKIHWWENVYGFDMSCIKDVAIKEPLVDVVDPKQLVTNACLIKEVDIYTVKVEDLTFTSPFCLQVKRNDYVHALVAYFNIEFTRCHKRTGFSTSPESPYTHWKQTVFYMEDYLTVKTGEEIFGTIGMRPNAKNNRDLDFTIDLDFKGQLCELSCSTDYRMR
Chain of PRMT8 (Q9NR22 whole entry, species assumed): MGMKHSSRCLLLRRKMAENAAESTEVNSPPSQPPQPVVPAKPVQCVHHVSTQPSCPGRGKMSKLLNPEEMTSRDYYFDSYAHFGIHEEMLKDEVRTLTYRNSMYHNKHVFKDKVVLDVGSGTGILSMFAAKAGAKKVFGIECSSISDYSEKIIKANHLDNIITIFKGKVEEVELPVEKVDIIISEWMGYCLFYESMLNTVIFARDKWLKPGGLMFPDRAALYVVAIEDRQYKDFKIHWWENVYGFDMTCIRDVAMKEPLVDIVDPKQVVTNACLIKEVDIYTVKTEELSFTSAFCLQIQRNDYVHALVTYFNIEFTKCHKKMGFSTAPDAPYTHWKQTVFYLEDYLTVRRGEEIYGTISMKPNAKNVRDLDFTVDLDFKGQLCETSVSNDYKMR

SMILES | inhibition at 10 µM [1] | inhibition at 10 µM [2] | inhibition at 10 µM [3] | inhibition at 10 µM [4] | inhibition at 10 µM [5] | PRMT6 inhibition ([3]; 10 μM) | PRMT4 inhibition [2]
Nc1cccc(-c2ccc(CNC(=O)NCCSC[C@H]3O[C@@H](n4cnc5c(N)ncnc54)[C@H](O)[C@@H]3O)cc2)c1 [Compound 8b] | 5% | 43% | 79% | 0% | 7% | – | –
Nc1ncnc2c1ncn2[C@@H]1O[C@H](CSCCNC(=O)NCc2ccc(-c3ccc(O)cc3)cc2)[C@@H](O)[C@H]1O [Compound 8c] | 10% | 42% | 82% | 3% | 21% | – | –
Nc1ncnc2c1ncn2[C@@H]1O[C@H](CSCCNC(=O)NCc2ccc(-c3cccc(O)c3)cc2)[C@@H](O)[C@H]1O [Compound 8d] | 9% | 37% | 88% | 15% | 22% | – | –
Nc1ncnc2c1ncn2[C@@H]1O[C@H](CSCCNC(=O)NCc2ccc(-c3ccccc3O)cc2)[C@@H](O)[C@H]1O [Compound 8e] | 13% | 53% | -2% | -2% | 11% | – | –
Nc1ncnc2c1ncn2[C@@H]1O[C@H](CSCCNC(=O)NCc2ccc(-c3cc[nH]n3)cc2)[C@@H](O)[C@H]1O [Compound 8f] | 9% | 17% | -6% | 2% | 27% | – | –
Nc1ncnc2c1ncn2[C@@H]1O[C@H](CSCCNC(=O)NCc2ccc(-c3cn[nH]c3)cc2)[C@@H](O)[C@H]1O [Compound 8g] | 10% | 19% | 5% | 5% | 2% | – | –
Nc1ncnc2c1ncn2[C@@H]1O[C@H](CSCCNCc2cccc(-c3ccc(Cl)cc3)c2)[C@@H](O)[C@H]1O [Compound 10a] | 16% | 99% | 57% | 71% | 16% | – | equal potency on PRMT4; also recorded: more potent PRMT4 inhibition activity than SGC8158
Nc1ncnc2c1ncn2[C@@H]1O[C@H](CSCCNCc2cccc(-c3ccc(O)cc3)c2)[C@@H](O)[C@H]1O [Compound 10b] | 1% | 100% | 55% | 67% | 19% | – | –
Nc1ncnc2c1ncn2[C@@H]1O[C@H](CSCCNCc2cccc(-c3cccc(F)c3)c2)[C@@H](O)[C@H]1O [Compound 10c] | 12% | 100% | 49% | 68% | 11% | – | –
Nc1ncnc2c1ncn2[C@@H]1O[C@H](CSCCNCc2cccc(-c3ccc(C(F)(F)F)cc3)c2)[C@@H](O)[C@H]1O [Compound 10e] | 15% | 99% | 57% | 67% | 2% | – | –
Nc1ncnc2c1ncn2[C@@H]1O[C@H](CSCCNCc2cccc(-c3ccc(F)c(O)c3)c2)[C@@H](O)[C@H]1O [Compound 10f] | 20% | 99% | 54% | 80% | 7% | – | –
Nc1ncnc2c1ncn2[C@@H]1O[C@H](CSCCNCc2cccc(-c3cccc4cn[nH]c34)c2)[C@@H](O)[C@H]1O [Compound 10h] | 12% | 100% | 82% | 58% | 1% | – | –
Nc1ncnc2c1ncn2[C@@H]1O[C@H](CSCCNCc2cccc(-c3cccc(O)c3)c2)[C@@H](O)[C@H]1O [Compound 10i] | 13% | 100% | 55% | 74% | 15% | – | –
Nc1ncnc2c1ncn2[C@@H]1O[C@H](CSCCNCc2cccc(-c3ccccc3O)c2)[C@@H](O)[C@H]1O [Compound 10j] | 10% | 99% | 43% | 56% | 25% | – | –

The next lines start with results.

inhibition at 10 µM [1] | inhibition at 10 µM [2] | inhibition at 10 µM [3] | inhibition at 10 µM [4] | inhibition at 10 µM [5] | PRMT6 inhibition ([3]; 10 μM) | SMILES | PRMT4 inhibition [2]
10% | 99% | 43% | 69% | 15% | – | Nc1ncnc2c1ncn2[C@@H]1O[C@H](CSCCNCc2cccc(-c3ccncc3)c2)[C@@H](O)[C@H]1O [Compound 10k] | –
8% | 100% | 53% | 62% | 7% | – | Nc1cccc(-c2cccc(CNCCSC[C@H]3O[C@@H](n4cnc5c(N)ncnc54)[C@H](O)[C@@H]3O)c2)c1 [Compound 10l] | –
21% | 96% | 36% | 69% | 57% | – | Nc1ncnc2c1ncn2[C@@H]1O[C@H](CSCCCNCc2cccc(-c3ccc(O)cc3)c2)[C@@H](O)[C@H]1O [Compound 10n] | –
24% | 97% | 37% | 65% | 71% | – | Nc1ncnc2c1ncn2[C@@H]1O[C@H](CSCCCNCc2cccc(-c3ccc(C(F)(F)F)cc3)c2)[C@@H](O)[C@H]1O [Compound 10o] | –
25% | 99% | 66% | 54% | 54% | – | Nc1ncnc2c1ncn2[C@@H]1O[C@H](CSCCCNCc2cccc(-c3ccoc3)c2)[C@@H](O)[C@H]1O [Compound 10p] | –
25% | 97% | 36% | 66% | 63% | – | Nc1ncnc2c1ncn2[C@@H]1O[C@H](CSCCCNCc2cccc(-c3cccc(F)c3)c2)[C@@H](O)[C@H]1O [Compound 10q] | –
22% | 95% | 74% | 72% | 52% | – | Nc1ncnc2c1ncn2[C@@H]1O[C@H](CSCCCNCc2cccc(-c3ccc(F)c(O)c3)c2)[C@@H](O)[C@H]1O [Compound 10r] | –
22% | 99% | 87% | 72% | 69% | – | Nc1ncnc2c1ncn2[C@@H]1O[C@H](CSCCCNCc2cccc(-c3cccc4cn[nH]c34)c2)[C@@H](O)[C@H]1O [Compound 10t] | –
4% | 69% | 85% | 23% | 1% | selective inhibition to PRMT6 | COc1cc2nc(-c3ccc(Cl)cc3)nc(NCCSC[C@H]3O[C@@H](n4cnc5c(N)ncnc54)[C@H](O)[C@@H]3O)c2cc1OC [Compound 12a] | –
